# Experimental data as given in ChEMBL document CHEMBL1147527, “Parallel synthesis of DAPT derivatives and their gamma-secretase-inhibitory activity” (Bioorg Med Chem Lett, 2004).
# Activity calls are given as the source filed them. The calls are words filed in the database; no cut-off is given here.
# Molecular target: T1, Gamma-secretase subunit PEN-2 (Homo sapiens, UniProt Q9NZ42)
# Experiment: Inhibitory activity against gamma-secretase
# T1 sequence (Q9NZ42 whole entry): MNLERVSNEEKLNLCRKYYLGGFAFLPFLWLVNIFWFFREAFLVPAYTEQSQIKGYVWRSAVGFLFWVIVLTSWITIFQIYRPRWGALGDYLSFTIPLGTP
row,SMILES,IC50 [nM]
1,C[C@H](NC(=O)Cc1cc(F)cc(F)c1)C(=O)N[C@@H](Cc1ccccc1)C(=O)OC(C)(C)C,50

# Molecular target: T1, Gamma-secretase subunit PEN-2
# Experiment: (§1) Inhibitory activity against gamma-secretase relative to DAPT
row,SMILES,Relative activity
1,CCCCNC(=O)[C@H](Cc1ccccc1)NC(=O)[C@H](C)NC(=O)Cc1cc(F)cc(F)c1,0.3
2,C[C@H](NC(=O)Cc1cc(F)cc(F)c1)C(=O)N[C@@H](Cc1ccccc1)C(=O)NCc1ccccc1,1
3,C[C@H](NC(=O)Cc1cc(F)cc(F)c1)C(=O)N[C@@H](Cc1ccccc1)C(=O)NC(c1ccccc1)c1ccccc1,1
4,C[C@H](NC(=O)Cc1cc(F)cc(F)c1)C(=O)N[C@@H](Cc1ccccc1)C(=O)OC(C)(C)C,1

# Molecular target: T1, Gamma-secretase subunit PEN-2
# Experiment: Inhibitory activity against gamma-secretase at concentration of 10 uM; not active
row,SMILES,Activity
1,C[C@H](NC(=O)Cc1cccc(Br)c1)C(=O)N[C@@H](Cc1ccccc1)C(=O)OC(C)(C)C,inactive
2,C[C@H](NC(=O)Cc1ccc(O)cc1)C(=O)N[C@@H](Cc1ccccc1)C(=O)OC(C)(C)C,inactive
3,C[C@H](NC(=O)Cc1cccc(O)c1)C(=O)N[C@@H](Cc1ccccc1)C(=O)OC(C)(C)C,inactive
4,C[C@H](NC(=O)Cc1ccccc1Br)C(=O)N[C@@H](Cc1ccccc1)C(=O)OC(C)(C)C,inactive
5,C[C@H](NC(=O)Cc1ccccc1O)C(=O)N[C@@H](Cc1ccccc1)C(=O)OC(C)(C)C,inactive
6,C[C@H](NC(=O)Cc1ccc(Br)cc1)C(=O)N[C@@H](Cc1ccccc1)C(=O)OC(C)(C)C,inactive

# Molecular target: Gamma-secretase (Homo sapiens) (UniProt Q96BI3+Q9NZ42+Q8WW43+P49768+Q92542+P49810)
# Experiment: as §1
# Type: protein-complex assay
row,SMILES,Relative activity
1,C[C@H](NC(=O)Cc1cc(F)cc(F)c1)C(=O)N[C@@H](Cc1ccccc1)C(=O)NCc1ccc(F)cc1,0.1
2,C[C@H](NC(=O)Cc1cc(F)cc(F)c1)C(=O)N[C@@H](Cc1ccccc1)C(=O)NCc1ccc(C(=O)c2ccccc2)cc1,30
3,COc1ccc(CNC(=O)[C@H](Cc2ccccc2)NC(=O)[C@H](C)NC(=O)Cc2cc(F)cc(F)c2)cc1,0.4
4,C[C@H](NC(=O)Cc1cc(F)cc(F)c1)C(=O)N[C@@H](Cc1ccccc1)C(=O)NCc1cccc(Cl)c1,0.1
5,COc1ccccc1CNC(=O)[C@H](Cc1ccccc1)NC(=O)[C@H](C)NC(=O)Cc1cc(F)cc(F)c1,0.2
6,COc1cccc(CNC(=O)[C@H](Cc2ccccc2)NC(=O)[C@H](C)NC(=O)Cc2cc(F)cc(F)c2)c1,0.1
7,C[C@H](NC(=O)Cc1cc(F)cc(F)c1)C(=O)N[C@@H](Cc1ccccc1)C(=O)NCc1ccccc1Cl,0.1
8,COC(=O)c1ccc(CNC(=O)[C@H](Cc2ccccc2)NC(=O)[C@H](C)NC(=O)Cc2cc(F)cc(F)c2)cc1,0.6
9,C[C@H](NC(=O)Cc1cc(F)cc(F)c1)C(=O)N[C@@H](Cc1ccccc1)C(=O)NCc1cccc(Br)c1,0.1
10,C[C@H](NC(=O)Cc1cc(F)cc(F)c1)C(=O)N[C@@H](Cc1ccccc1)C(=O)NCc1ccc(Br)cc1,0.6
11,C[C@H](NC(=O)Cc1cc(F)cc(F)c1)C(=O)N[C@@H](Cc1ccccc1)C(=O)NCc1ccc(Cl)cc1,0.6
12,C[C@H](NC(=O)Cc1cc(F)cc(F)c1)C(=O)N[C@@H](Cc1ccccc1)C(=O)NCc1ccccc1Br,0.3
